# From ChEMBL document CHEMBL4130348, “Structure-activity relationship investigation for benzonaphthyridinone derivatives as novel potent Bruton's tyrosine kinase (BTK) irreversible inhibitors” (Eur J Med Chem, 2017)
# Assays:
# [1] = biological target: Tyrosine-protein kinase BTK (Homo sapiens, UniProt Q06187); assay: Inhibition of recombinant full length His-tagged human BTK expressed in baculovirus expression system using poly (4:1 Glu, Tyr) as substrate preincubated for 1 hr followed by substrate addition measured after 1 hr by ADP-glo assay
# [2] = biological target: T1, Tyrosine-protein kinase JAK3 (Homo sapiens, UniProt P52333); assay: Inhibition of recombinant GST-tagged human JAK3 expressed in baculovirus expression system using poly (4:1 Glu, Tyr) as substrate preincubated for 1 hr followed by substrate addition measured after 1 hr by ADP-glo assay
# T1 sequence (P52333 whole entry): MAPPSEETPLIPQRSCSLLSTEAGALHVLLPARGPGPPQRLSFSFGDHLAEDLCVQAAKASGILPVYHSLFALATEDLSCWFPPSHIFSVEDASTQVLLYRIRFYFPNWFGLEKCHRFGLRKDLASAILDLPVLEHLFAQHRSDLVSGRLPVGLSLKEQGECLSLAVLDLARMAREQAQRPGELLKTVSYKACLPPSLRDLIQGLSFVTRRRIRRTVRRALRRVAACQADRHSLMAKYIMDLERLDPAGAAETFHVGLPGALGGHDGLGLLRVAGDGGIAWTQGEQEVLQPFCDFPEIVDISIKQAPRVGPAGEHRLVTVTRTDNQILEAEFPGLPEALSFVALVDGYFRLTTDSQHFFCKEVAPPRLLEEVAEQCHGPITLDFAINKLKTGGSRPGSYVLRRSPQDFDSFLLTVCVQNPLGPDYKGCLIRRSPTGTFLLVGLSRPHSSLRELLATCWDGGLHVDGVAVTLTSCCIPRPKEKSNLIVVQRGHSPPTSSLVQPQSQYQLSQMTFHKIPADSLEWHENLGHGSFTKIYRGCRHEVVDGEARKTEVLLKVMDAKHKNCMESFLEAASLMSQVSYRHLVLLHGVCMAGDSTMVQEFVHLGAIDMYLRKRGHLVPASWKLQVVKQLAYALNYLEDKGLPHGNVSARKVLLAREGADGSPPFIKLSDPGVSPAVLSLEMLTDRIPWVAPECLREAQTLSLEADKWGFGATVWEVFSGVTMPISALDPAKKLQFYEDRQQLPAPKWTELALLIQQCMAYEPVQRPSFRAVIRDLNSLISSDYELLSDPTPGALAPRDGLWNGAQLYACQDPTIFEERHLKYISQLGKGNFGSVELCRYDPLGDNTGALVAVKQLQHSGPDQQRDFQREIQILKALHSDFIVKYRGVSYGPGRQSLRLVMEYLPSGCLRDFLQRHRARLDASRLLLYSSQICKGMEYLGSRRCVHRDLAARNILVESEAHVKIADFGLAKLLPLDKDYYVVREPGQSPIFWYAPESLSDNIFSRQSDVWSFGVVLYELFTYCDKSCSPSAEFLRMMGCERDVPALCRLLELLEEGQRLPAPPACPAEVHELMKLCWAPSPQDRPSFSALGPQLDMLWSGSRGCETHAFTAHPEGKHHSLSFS
# [3] = biological target: Tyrosine-protein kinase Blk (Homo sapiens, UniProt P51451); assay: Inhibition of recombinant full length His-tagged human BLK expressed in baculovirus expression system using poly (4:1 Glu, Tyr) as substrate preincubated for 1 hr followed by substrate addition measured after 1 hr by ADP-glo assay
# Sequence of Tyrosine-protein kinase Blk (P51451 whole entry): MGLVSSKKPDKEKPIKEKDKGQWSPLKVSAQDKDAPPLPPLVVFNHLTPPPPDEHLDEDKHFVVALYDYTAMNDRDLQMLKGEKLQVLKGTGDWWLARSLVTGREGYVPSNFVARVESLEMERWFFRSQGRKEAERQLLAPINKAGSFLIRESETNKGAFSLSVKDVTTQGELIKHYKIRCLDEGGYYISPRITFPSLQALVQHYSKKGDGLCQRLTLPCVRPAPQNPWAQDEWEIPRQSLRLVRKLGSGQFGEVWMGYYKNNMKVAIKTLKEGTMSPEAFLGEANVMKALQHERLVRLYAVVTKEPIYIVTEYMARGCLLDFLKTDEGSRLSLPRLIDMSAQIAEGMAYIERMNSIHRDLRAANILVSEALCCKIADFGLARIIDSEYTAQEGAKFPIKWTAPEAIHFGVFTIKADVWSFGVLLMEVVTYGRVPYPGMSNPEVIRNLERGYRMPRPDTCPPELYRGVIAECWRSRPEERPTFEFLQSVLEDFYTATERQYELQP
# Sequence of Tyrosine-protein kinase BTK (Q06187 whole entry): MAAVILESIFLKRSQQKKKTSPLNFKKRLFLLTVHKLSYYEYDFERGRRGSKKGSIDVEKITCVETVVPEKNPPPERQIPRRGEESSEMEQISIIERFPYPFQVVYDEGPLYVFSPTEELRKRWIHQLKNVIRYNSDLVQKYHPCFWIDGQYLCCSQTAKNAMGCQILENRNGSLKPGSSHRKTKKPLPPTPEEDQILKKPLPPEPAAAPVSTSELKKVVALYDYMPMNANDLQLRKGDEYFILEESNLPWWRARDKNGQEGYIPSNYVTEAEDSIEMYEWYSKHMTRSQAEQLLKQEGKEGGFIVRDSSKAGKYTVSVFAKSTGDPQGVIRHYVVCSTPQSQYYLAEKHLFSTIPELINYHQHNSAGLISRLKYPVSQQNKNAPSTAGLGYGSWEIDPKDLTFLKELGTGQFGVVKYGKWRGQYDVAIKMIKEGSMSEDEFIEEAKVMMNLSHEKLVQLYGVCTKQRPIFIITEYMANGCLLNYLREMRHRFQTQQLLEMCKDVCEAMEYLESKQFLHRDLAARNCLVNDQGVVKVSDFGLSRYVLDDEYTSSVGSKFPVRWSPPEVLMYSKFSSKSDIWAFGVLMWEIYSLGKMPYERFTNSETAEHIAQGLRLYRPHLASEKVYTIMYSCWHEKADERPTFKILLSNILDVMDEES
compound,measurement,setting,value
C=CC(=O)N1CCc2ccc(-n3c(=O)ccc4cnc5ccc(-c6cnc7ccccc7c6)cc5c43)cc21,IC50,[1],7.15 nM
same,IC50,[2],983 nM
same,IC50,[3],191 nM
C=CC(=O)N1CCc2ccc(-n3c(=O)ccc4cnc5ccc(-c6ccc(S(=O)(=O)NC(C)(C)C)cc6)cc5c43)cc21,IC50,[2],> 10000 nM
same,IC50,[3],83.6 nM
C=CC(=O)Nc1cccc(-n2c(=O)ccc3cnc4ccc(-c5ccc(N)nc5)cc4c32)c1,IC50,[2],654 nM
same,IC50,[3],336 nM
C=CC(=O)Nc1cc(-n2c(=O)ccc3cnc4ccc(-c5cnn(C)c5)cc4c32)ccc1C,IC50,[2],343 nM
same,IC50,[3],339 nM
C=CC(=O)N1CCc2ccc(-n3c(=O)ccc4cnc5ccc(-c6ccc(N7CCN(C)CC7)cc6)cc5c43)cc21,IC50,[2],1560 nM
same,IC50,[3],> 10000 nM
C=CC(=O)Nc1cc(-n2c(=O)ccc3cnc4ccc(-c5ccc(NC(=O)NC)cc5)cc4c32)ccc1C,IC50,[1],79.1 nM
same,IC50,[2],218 nM
same,IC50,[3],1130 nM
C=CC(=O)Nc1cc(-n2c(=O)ccc3cnc4ccc(-c5ccc(N)nc5)cc4c32)ccc1C,IC50,[2],177 nM
same,IC50,[3],177 nM
C=CC(=O)Nc1cc(-n2c(=O)ccc3cnc4ccc(-c5ccc6c(c5)OCCO6)cc4c32)ccc1C,IC50,[2],192 nM
same,IC50,[3],160 nM
